According to US20230357240A1, “NOVEL N-HETEROCYCLIC BET BROMODOMAIN INHIBITOR, AND PREPARATION METHOD THEREOF AND MEDICAL USE THEREOF” (Chengdu Easton Biopharmaceuticals Co., Ltd., priority 2020, published 2023):
Where two headings read alike, the source gives them in different places.

Assays:
[1] = test system: MV4-11 xenograft tumor; assay: In vivo efficacy test, MV4-11 xenograft tumor model in mice; details: NOD-SCID mice, 5 mg/kg qd gavage, 14 days
Excerpt: EXAMPLE 11 In Vivo Efficacy Test of the Compound of the Present Application
Objective: To test the inhibitory effect of the test compound on the growth of xenograft tumor in nude mice with MV4-11 leukemia.
Method: NOD-SCID mice were subcutaneously inoculated with MV4-11 cells to establish an MV4-11 xenograft tumor model in mice. 16 days after inoculation (d16), average tumor volume was about 210 mm^3. According to the tumor volumes, the tumor-bearing mice were grouped in a random block method, with 6 mice in each group. The groups included a solvent control group, an ABBV-744 control group, and a test sample group, the dosage was 5 mg/kg mouse body weight, and the dose volume was 10 mL/kg mouse body weight, once a day. Each group was gavage administered for 14 consecutive days, and the solvent control group was gavage administered with a blank solvent (20% […] solution). Tumor volumes were measured twice weekly after administration of the test drug. The animals were euthanized after the test.

[2] = test system: MV4-11 cell; assay: MV4-11 cell proliferation experiment (CCK-8 cell viability); assay type: cell-based; details: Homo sapiens, MV4-11 cells, 72-hour culture
Experimental: EXAMPLE 9 Cell Experiment (MV4-11 Cell Proliferation Experiment)
Determination of Cell Viability with CCK-8 Reagent
(1) MV4-11 cell suspension was pipetted from a culture flask into a 15 mL centrifuge tube, and the cell suspension was centrifuged at 1000 rpm for 4 minutes.
(2) A supernatant in the centrifuge tube was discarded, and an appropriate amount of fresh complete medium (IMDM+10% FBS+1% P/S) was added to resuspend the cells. 20 μL of cell suspension was collected, 20 μL of trypan blue was added, and CounterStar was used for counting.
(3) A required cell suspension volume and complete medium volume were calculated according to viable cell density and the required number of plated cells. MV4-11 cells were plated at a density of 1*10^4 cells/well in 100 μL/well.
(4) 100 μL of the above cell suspension was pipetted into a 96-well plate by using an electric pipette. 150 μL of complete medium was added to blank control wells. PBS was added to peripheral wells of the 96-well plate, to avoid liquid evaporation. The 96-well plate was cultured overnight in an incubator.
Day 2: Compound Preparation:
(1) The compound of the present application dissolved in DMSO and the positive control substance ABBV-744 were fetched, and subjected to serial dilution (dilution in column A, column B, . . . , column J sequentially from left to right in a 96-well PCR plate).
An initial concentration of the solution in column A is 10 mM;
Column B: 2 μL of the solution in column A was diluted with 8 μL of DMSO to obtain a final concentration of 2000 μM;
Column C: 2 μL of the solution in column B was diluted with 8 μL of DMSO to obtain a final concentration of 400 μM;
Column D: 2 μL of the solution in column C was diluted with 8 μL of DMSO to obtain a final concentration of 80 μM;
Column E: 2 μL of the solution in column D was diluted with 8 μL of DMSO to obtain a final concentration of 16 μM;
Column F: 2 μL of the solution in column E was diluted with 8 μL of DMSO to obtain a final concentration of 3.2 μM;
Column G: 2 μL of the solution in column F was diluted with 8 μL of DMSO to obtain a final concentration of 0.64 μM;
Column H: 2 μL of the solution in column G was diluted with 8 μL of DMSO to obtain a final concentration of 0.128 μM;
Column I: 2 μL of the solution in column H was diluted with 8 μL of DMSO to obtain a final concentration of 0.0256 μM; and
Column J: 2 μL of the solution in column I was diluted with 8 μL of DMSO to obtain a final concentration of 0.00512 μM.
The suspension was centrifuged for 1 minute at 1000 rpm by using a low-speed centrifuge.
(2) 3×Compound Preparation: (Diluted in a 96-Well Cell Culture Plate)
3 μL of each of the solutions in columns B to J was pipetted into […] of complete medium by a 10 μL manual pipette to obtain 3×compound solutions with a final concentration of 30000, 6000, 1200, 240, 48, 9.6, 1.92, 0.384 and 0.0768 nM, respectively; and 3 μL of DMSO was pipetted into […] of complete medium as a control. The resulting 96-well cell culture plate was put on an oscillator to be oscillated at 500 rpm for 30 minutes.
(1) The prepared 3×compound solutions with the above concentrations were each pipetted by a manual pipette with its volume set to 50 μL into a corresponding well of the 96-well plate after overnight culture on the first day, and the total culture volume of each well was 150 μL. The final concentrations of the compounds in the 96-well plate were 10 μM, 2 μM, 400 nM, 80 nM, 16 nM, 3.2 nM, 0.64 nM, 0.128 nM and 0.0256 nM, respectively. The resulting 96-well plate was put on an oscillator to be oscillated at 500 rpm for 10 minutes.
(2) The 96-well plate as prepared was put in a CO2 incubator for 72-hour culture.
(1) CCK-8 test solution was pipetted into the 96-well cell culture plate in an amount of 15 μL/well by a pipette with a volume set to 15 μL.
(2) The 96-well plate was put in the CO2 incubator for 4-hour culture. […]

[3] = target: T1, hERG ion channel (Homo sapiens, UniProt Q12809); assay: hERG inhibition test, whole-cell patch clamp in HEK293 cells stably expressing the hERG ion channel; assay type: cell-based; details: tail current, Hill equation fit
T1 construct: expressed in transfected cells; host or cells: HEK293 cells stably expressing hERG
Experimental: (§1) An hERG current was recorded by the whole-cell patch clamp technique. A suspension of HEK293 cells stably expressing the hERG ion channel was added to a 35 mm culture dish, and the culture dish was put on a stage of an inverted microscope. […] The pulse program was repeated every 15 seconds throughout the whole test. After the current became stable, the administration method of continuous extracellular perfusion from low concentration to high concentration was used, and the perfusion started from low concentration and continued until the drug effect was stable, and then the perfusion of the next concentration was performed.
(§2) After the test, stimulus release and signal acquisition were carried out through PatchMaster software. Graphpad Prism 8.0 was used for further data analysis and curve fitting. Effects of each compound at different concentrations were represented with an inhibition rate of the tail current. Inhibition rate=(peak tail current before administration—peak tail current after administration)/peak tail current before administration x 100%. Half-maximal inhibitory concentration IC50 of the test samples was obtained by the fitting analysis with Hill equation.

[4] = target: T2, hERG (Homo sapiens, UniProt Q12809); assay: as above; assay type: cell-based; details: human, HEK293 cells stably expressing the hERG ion channel
T2 construct: expressed in transfected cells; host or cells: HEK293 cells stably expressing hERG
Experimental: as §1, §2

[5] = read-out: Average hERG inhibition rate
[6] = read-out: hERG Inhibition rate, Cell 1
[7] = read-out: hERG Inhibition rate, Cell 2

T2 sequence (Q12809 whole entry): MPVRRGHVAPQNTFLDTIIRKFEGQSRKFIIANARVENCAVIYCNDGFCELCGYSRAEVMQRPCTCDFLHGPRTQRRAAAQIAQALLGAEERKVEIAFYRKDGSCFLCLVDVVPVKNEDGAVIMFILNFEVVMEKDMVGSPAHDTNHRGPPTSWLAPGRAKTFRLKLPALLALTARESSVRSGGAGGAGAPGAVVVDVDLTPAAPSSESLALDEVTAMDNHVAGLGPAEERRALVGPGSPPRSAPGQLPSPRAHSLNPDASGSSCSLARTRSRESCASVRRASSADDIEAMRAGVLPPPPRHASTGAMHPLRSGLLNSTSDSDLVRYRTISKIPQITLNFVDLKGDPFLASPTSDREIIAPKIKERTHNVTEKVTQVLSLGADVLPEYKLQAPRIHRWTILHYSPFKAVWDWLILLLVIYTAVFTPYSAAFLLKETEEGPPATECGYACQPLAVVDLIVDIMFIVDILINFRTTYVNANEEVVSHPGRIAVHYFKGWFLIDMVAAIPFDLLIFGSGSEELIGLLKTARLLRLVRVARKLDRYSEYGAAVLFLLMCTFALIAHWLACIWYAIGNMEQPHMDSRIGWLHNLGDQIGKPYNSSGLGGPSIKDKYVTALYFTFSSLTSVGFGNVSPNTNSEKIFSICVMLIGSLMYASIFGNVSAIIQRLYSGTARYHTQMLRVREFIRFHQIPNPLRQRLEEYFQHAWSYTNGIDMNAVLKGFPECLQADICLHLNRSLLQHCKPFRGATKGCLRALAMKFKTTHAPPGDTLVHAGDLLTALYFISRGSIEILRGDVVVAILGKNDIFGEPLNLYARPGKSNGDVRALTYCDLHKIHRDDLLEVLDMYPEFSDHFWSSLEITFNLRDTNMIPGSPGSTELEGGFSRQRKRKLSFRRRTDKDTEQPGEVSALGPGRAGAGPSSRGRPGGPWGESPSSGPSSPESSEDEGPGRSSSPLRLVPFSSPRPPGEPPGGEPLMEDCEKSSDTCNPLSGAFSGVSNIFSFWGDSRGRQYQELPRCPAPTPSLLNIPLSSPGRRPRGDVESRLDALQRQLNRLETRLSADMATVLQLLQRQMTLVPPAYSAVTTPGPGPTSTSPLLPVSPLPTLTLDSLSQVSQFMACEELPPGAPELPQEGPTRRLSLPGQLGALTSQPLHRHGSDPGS
T1 sequence (Q12809 whole entry): as above

CCNC(=O)c1cc2c(-c3cc(C(C)(C)O)ccc3Oc3c(C)cc(F)cc3C)cn(C)c(=O)c2[nH]1 [ABBV-744, reference compound]
Relative tumor proliferation rate T/C [1]: 45.98% | IC50 [2]: 0.00722 µM | IC50 [3]: 3.12 µM | inhibition at 0.37 µM [4, 5]: 5.35% | inhibition at 0.37 µM [4, 6]: 8.24% | inhibition at 0.37 µM [4, 7]: 2.46% | inhibition at 1.11 µM [4, 5]: 17.4% | inhibition at 1.11 µM [4, 6]: 23% | inhibition at 1.11 µM [4, 7]: 11.8% | inhibition at 3.33 µM [4, 5]: 54.7% | inhibition at 3.33 µM [4, 6]: 57.7% | inhibition at 3.33 µM [4, 7]: 51.7% | inhibition at 10 µM [4, 5]: 87.6% | inhibition at 10 µM [4, 6]: 87.9% | inhibition at 10 µM [4, 7]: 87.3% | inhibition at 30 µM [4, 5]: 99.1% | inhibition at 30 µM [4, 6]: 99.4% | inhibition at 30 µM [4, 7]: 98.7%

CCNC(=O)c1cc2c(-c3sc(C(C)(C)O)cc3N3CCc4cccc(F)c43)cn(C)c(=O)c2[nH]1 [Compound 2, N-ethyl-4-(3-(7-fluoroindolin-1-yl)-5-(2-hydroxypropyl-2-yl)thiophen-2-yl)-6-methyl-7-oxo-6,7-dihydro-1H-pyrrolo[2,3-c]pyridine-2-carboxamide]
IC50 [2]: 0.0242 µM

CCNC(=O)c1cc2c(-c3sc(C(C)(C)O)cc3N3CCc4cccc(C)c43)cn(C)c(=O)c2[nH]1 [Compound 3, N-ethyl-4-(5-(2-hydroxypropyl-2-yl)-3-(7-methylindolin-1-yl)thiophen-2-yl)-6-met hyl-7-oxo-6,7-dihydro-1H-pyrrolo[2,3-c]pyridine-2-carboxamide]
IC50 [2]: 0.0398 µM

CCNC(=O)c1cc2c(-c3sc(C(C)(C)O)cc3N3CCc4cc(F)ccc43)cn(C)c(=O)c2[nH]1 [Compound 4, N-ethyl-4-(3-(5-fluoroindolin-1-yl)-5-(2-hydroxypropyl-2-yl)thiophen-2-yl)-6-methyl-7-oxo-6,7-dihydro-1H-pyrrolo[2,3-c]pyridine-2-carboxamide]
IC50 [2]: 0.0063 µM

CCNC(=O)c1cc2c(-c3sc(C(C)(C)O)cc3N3CCc4cc(C(F)(F)F)ccc43)cn(C)c(=O)c2[nH]1 [Compound 5, N-ethyl-4-(5-(2-hydroxypropyl-2-yl)-3-(5-trifluoromethylindolin-1-yl)thiophen-2-y I)-6-methyl-7-oxo-6,7-dihydro-1H-pyrrolo[2,3-c]pyridine-2-carboxamide]
IC50 [2]: 0.0121 µM

CCNC(=O)c1cc2c(-c3sc(C(C)(C)O)cc3N3CCCc4cc(F)ccc43)cn(C)c(=O)c2[nH]1 [Compound 6, N-ethyl-4-(5-(2-hydroxypropyl-2-yl)-3-(6-fluoro-3,4-dihydroquinolin-1(2H)-yl)thiophen-2-yl)-6-methyl-7-oxo-6,7-dihydro-1H-pyrrolo[2,3-c]pyridine-2-carboxamide]
IC50 [2]: 0.0082 µM

CCNC(=O)c1cc2c(-c3sc(C(C)(C)O)cc3N3CCc4cccc(C(F)(F)F)c43)cn(C)c(=O)c2[nH]1 [Compound 7, N-ethyl-4-(5-(2-hydroxypropyl-2-yl)-3-(7-(trifluoromethyl)indolin-1-yl)thiophen-2-yl)-6-methyl-7-oxo-6,7-dihydro-1H-pyrrolo[2,3-c]pyridine-2-carboxamide]
IC50 [2]: 0.0173 µM
